Experimental data as given in article PMC8304783, “Antiadhesive Properties of Imidazolium Ionic Liquids Based on (−)-Menthol Against Candida spp” (International Journal of Molecular Sciences, 2021).

What was measured:
[1] = system: C. albicans; experiment: Detachment of adherent cells from polystyrene (crystal violet); type: cell-based; conditions: C. albicans on polystyrene, 2 h treatment; over MIC, 2 × MIC and 4 × MIC
Description: (§1) Thus, for the evaluation of ILs on fungal adhesion, higher concentrations were used, corresponding to 1, 2 and 4 times the MIC90 values (Figure 1).
(§2) Figure 1 Detachment of adherent Candida spp. cells after 2 h incubation on polystyrene surfaces by ionic liquids (ILs) (A) or amphotericin B (AMB) (B) (means ± SD; n = 3). Results are presented as percentage of adherent cells relative to untreated controls (100% adhesion). Statistical analysis of detachment at each concentration was performed towards corresponding control experiments (fungi untreated by ILs or AMB = 100% adhesion) (*, p < 0.05 and **, p < 0.01).
(§3) Post-adherence treatment with ILs was performed in a similar manner to that described previously by our team. Candida spp. suspensions were prepared by centrifuging YPD-grown cultures and resuspending fungal mass in PBS to an OD600 = 0.6. Sterile 96-well plates were inoculated with the prepared suspensions and incubated for 2 h at 37 °C to induce fungal adhesion. Afterwards, adherent cells were washed with PBS to remove planktonic cells and treated with ILs (concentrations equivalent to 1, 2 or 4 × MIC90 for each fungi) for 2 h at 37 °C. Then, each well was washed with PBS and adherent cells were fixed with 0.1% CV solution for 5 min, and washed with PBS. Cells were then treated with a solution of isopropanol 0.04 N HCL with 0.1% SDS to permeabilize adherent cells and release the CV dye. The absorbance of CV was measured at 590 nm (ASYS UVM 340 Biogenet). The percentage of cells that were removed was determined in comparison to adherent cells treated with PBS only (designated 100% adhesion).

[2] = system: C. glabrata; experiment: as above; type: cell-based; conditions: C. glabrata on polystyrene, 2 h treatment
Description: as §1, §2, §3

[3] = system: C. krusei; experiment: as above; type: cell-based; conditions: C. krusei on polystyrene, 2 h treatment; over MIC, 2 × MIC and 4 × MIC
Description: as §1, §2, §3

[4] = system: C. parapsilosis; experiment: as above; type: cell-based; conditions: C. parapsilosis on polystyrene, 2 h treatment, 2 × MIC and 4 × MIC
Description: as §1, §2, §3

[5] = system: ALS1; experiment: Real time quantitative PCR, relative gene expression; type: cell-based, C. albicans; conditions: ILs 25 µM, 2 h; relative to untreated cells (100%)
Description: (§4) Fungal adhesion to biomedical surfaces is strongly related to the structure of the cell wall, and the presence of adhesins (Als proteins) on the surface of the cell. In turn, the progression to biofilm formation is dependent on the ability of C. albicans to form hyphae. In conditions similar to those above (ILs conc. = 25 µM), we examined C. albicans cell wall integrity, its ability to form hyphae, and the level of ALS genes expression, encoding Als1 and Als5 adhesins (Figure 3). […] Despite some reduction, the result was not statistically significant (p = 0.12). On the other hand, after the treatment with IL 2a, the expression of ALS1 and ALS5 genes was reduced by 50 or 55%, respectively (Figure 3C). The results were statistically significant in both cases (p = 0.04 for either ALS gene). However, in case of compounds with alkyl substituents (1a and 1b), the reduction of gene expression was to a lesser degree. […] Despite observing a chain-length dependence, the results were not statistically significant (p = 0.07 for both ALS gene after treatment with 1b).
(§5) Figure 3 (A) C. albicans calcofluor white staining following a 2 h treatment with 1a,2a,1b ILs (conc. = 25 µM). Control experiment represents untreated calcofluor white-stained cells. Scale bar = 2.5 µm. (B) FBS-induced hyphae formation after 2 h treatment with 1a,2a,1b ILs (conc. = 25 µM). Control condition was C. albicans treated with FBS only. Scale bar = 10 µm. (C) Relative ALS1 and ALS5 gene expression in C. albicans following a 2 h treatment with 1a,2a,1b ILs (conc. = 25 µM). Gene expression levels are reported as means of 2^−∆∆CT values (n = 6) ± SD; normalized to 100% for untreated cells (control). Statistical analyses were performed by comparing expression under treatment with each IL to untreated cells. * p < 0.05.
(§6) YPD-grown C. albicans cells were pelleted, washed with PBS and treated with ILs (conc. = 25 µM) for 2 h at 37 °C. Next, the cells were pelleted, and concentrated (PBS; OD600 = 20). RNA was isolated using the Total RNA Mini Kit (A&A Biotechnology, Gdańsk, Poland). Synthesis of cDNA and calculation of gene expression levels were performed as previously described. The following gene-specific primers were used: ACT1_F (5′-TCCAGCTTTCTACGTTTCCA-3′), ACT1_R (5′-GTCAAGTCTCTACCAGCCAA-3′), ALS1_F (5′-TGTTGGTGTGACTACTTCCT-3′), ALS1_R (5′-TGT ACC ACT GTG TCA AT-3′), ALS5_F (5′-CTCCACTAGTTATGGGGATGT-3′) and ALS5_R (5′-TGAGGGAGAAATATAAGCGTCA-3′).

[6] = system: ALS5; experiment: as above; type: cell-based, C. albicans; conditions: ILs 25 µM, 2 h; relative to untreated cells (100%)
Description: as §4, §5, §6

[7] = highest concentration (4 × MIC)

SMILES | Reduction of adhesion [1] | Reduction of adhesion [2, 7] | Reduction of adhesion [3] | Reduction of adhesion ([4]; over MIC) | Reduction of ALS1 gene expression [5] [%] | Reduction of ALS5 gene expression [6] [%] | Reduction of adhesion ([2]; 2 × MIC and 4 × MIC) | Reduction of adhesion [4]
CCCCCCCCCn1cc[n+](CO[C@@H]2C[C@H](C)CC[C@H]2C(C)C)c1 [1a, 1-[(1R,2S,5R)-(−)-menthoxymethyl]-3-nonylimidazolium chloride] | did not influence the adherent properties | ~ 40% | approximately 10% | did not influence the adherent properties | 20 | 10 | – | –
CCCCCCCCCCn1cc[n+](CO[C@@H]2C[C@H](C)CC[C@H]2C(C)C)c1 [1b, 3-decyl-1-[(1R,2S,5R)-(−)-menthoxymethyl]imidazolium chloride] | 20–25% | – | did not significantly reduce | – | 45 | 40 | ~ 20% | 20–25%
CCCCCCCCCOCn1cc[n+](CO[C@@H]2C[C@H](C)CC[C@H]2C(C)C)c1 [2a, 1-(1R,2S,5R)-(−)-menthoxymethyl-3-nonyloxymethylimidazolium chloride] | 20–30% | approximately 45% | 10–20% | 30–40% | 50 | 55 | – | –
